Results on 13 compounds are retold here after ChEMBL document CHEMBL3632533, “O-Benzoyl pyridine aldoxime and amidoxime derivatives: novel efficient DNA photo-cleavage agents” (Medchemcomm, 2015).

Assay [1] concerns Enterobacteria phage lambda. Description: Induction of Lambda phage supercoiled circular pBluescript KS II DNA cleavage incubated for 30 mins by agarose gel electrophoresis in absence of UV light irradiation.
Assay [2] concerns Enterobacteria phage lambda. Description: Induction of Lambda phage supercoiled circular pBluescript KS II DNA cleavage assessed as single-stranded nick formation at 100 uM preincubated for 30 mins followed by UV light irradiation under aerobic condition measured after 15 mins by agarose gel electrophoresis.
In assay [3] the test system is Enterobacteria phage lambda. Kind of assay: Induction of Lambda phage supercoiled circular pBluescript KS II DNA cleavage assessed as single-stranded nick formation at 1000 uM preincubated for 30 mins followed by UV light irradiation under aerobic condition measured after 15 mins by agarose gel electrophoresis.
The test system of assay [4] is Enterobacteria phage lambda. Description: Induction of Lambda phage supercoiled circular pBluescript KS II DNA cleavage assessed as double-stranded nick formation at 1000 uM preincubated for 30 mins followed by UV light irradiation under aerobic condition measured after 15 mins by agarose gel electrophoresis.
Assay [5] concerns Enterobacteria phage lambda. Description: Induction of Lambda phage supercoiled circular pBluescript KS II DNA cleavage assessed as single-stranded nick formation at 1 uM preincubated for 30 mins followed by UV light irradiation under aerobic condition measured after 15 mins by agarose gel electrophoresis.
In assay [6] the test system is Enterobacteria phage lambda. Description: Induction of Lambda phage supercoiled circular pBluescript KS II DNA cleavage assessed as double-stranded nick formation at 100 uM preincubated for 30 mins followed by UV light irradiation under aerobic condition measured after 15 mins by agarose gel electrophoresis.
Assay [7] has as its system Enterobacteria phage lambda. Kind of assay: Induction of Lambda phage supercoiled circular pBluescript KS II DNA cleavage assessed as single-stranded nick formation at 500 uM preincubated for 30 mins followed by UV light irradiation under aerobic condition measured after 15 mins by agarose gel electrophoresis.
Assay [8] concerns Enterobacteria phage lambda. Description: Induction of Lambda phage supercoiled circular pBluescript KS II DNA cleavage assessed as double-stranded nick formation at 1 uM preincubated for 30 mins followed by UV light irradiation under aerobic condition measured after 15 mins by agarose gel electrophoresis.
Assay [9] has as its system Enterobacteria phage lambda. Description: Induction of Lambda phage supercoiled circular pBluescript KS II DNA cleavage assessed as single-stranded nick formation at 10 uM preincubated for 30 mins followed by UV light irradiation under aerobic condition measured after 15 mins by agarose gel electrophoresis.
The test system of assay [10] is Enterobacteria phage lambda. Kind of assay: Induction of Lambda phage supercoiled circular pBluescript KS II DNA cleavage assessed as double-stranded nick formation at 10 uM preincubated for 30 mins followed by UV light irradiation under aerobic condition measured after 15 mins by agarose gel electrophoresis.
Assay [11] has as its system Enterobacteria phage lambda. Kind of assay: Induction of Lambda phage supercoiled circular pBluescript KS II DNA cleavage preincubated for 30 mins followed by UV light irradiation under aerobic condition measured after 15 mins by agarose gel electrophoresis.
Assay [12] relates to Enterobacteria phage lambda. Description: Induction of Lambda phage supercoiled circular pBluescript KS II DNA cleavage assessed as single-stranded nick formation at 100 uM preincubated for 30 mins followed by UV light irradiation under aerobic condition measured after 15 mins by agarose gel electrophoresis in presence of 20% DMSO.
The test system of assay [13] is Enterobacteria phage lambda. Description: Induction of Lambda phage supercoiled circular pBluescript KS II DNA cleavage assessed as double-stranded nick formation at 100 uM preincubated for 30 mins followed by UV light irradiation under aerobic condition measured after 15 mins by agarose gel electrophoresis in presence of 20% DMSO.
Assay [14] relates to Enterobacteria phage lambda. Kind of assay: Induction of Lambda phage supercoiled circular pBluescript KS II DNA cleavage assessed as double-stranded nick formation at 500 uM preincubated for 30 mins followed by UV light irradiation under aerobic condition measured after 15 mins by agarose gel electrophoresis.
Assay [15] relates to Enterobacteria phage lambda. Description: Induction of Lambda phage supercoiled circular pBluescript KS II DNA cleavage assessed as single-stranded nick formation at 100 uM preincubated for 30 mins followed by UV light irradiation under aerobic condition measured after 15 mins by agarose gel electrophoresis in presence of D2O.
Assay [16] relates to Enterobacteria phage lambda. Description: Induction of Lambda phage supercoiled circular pBluescript KS II DNA cleavage assessed as double-stranded nick formation at 100 uM preincubated for 30 mins followed by UV light irradiation measured after 15 mins by agarose gel electrophoresis in presence of argon.
Assay [17] relates to Enterobacteria phage lambda. Description: Induction of Lambda phage supercoiled circular pBluescript KS II DNA cleavage assessed as single-stranded nick formation at 100 uM preincubated for 30 mins followed by UV light irradiation measured after 15 mins by agarose gel electrophoresis in presence of argon.
The subject of assay [18] is Enterobacteria phage lambda. Description: Induction of Lambda phage supercoiled circular pBluescript KS II DNA cleavage assessed as single-stranded nick formation at 100 uM preincubated for 30 mins followed by UV light irradiation under aerobic condition measured after 15 mins by agarose gel electrophoresis in presence of NaN3.
Assay [19] concerns Enterobacteria phage lambda. Description: Induction of Lambda phage supercoiled circular pBluescript KS II DNA cleavage assessed as double-stranded nick formation at 100 uM preincubated for 30 mins followed by UV light irradiation under aerobic condition measured after 15 mins by agarose gel electrophoresis in presence of D2O.

Calls of active or inactive are those of the source. The calls are words filed in the database; no cut-off is given here.

Take `O=C(O/N=C/c1ccccn1)c1ccc([N+](=O)[O-])cc1`: the result in assay [1] was inactive. Moreover, the Activity in assay [2] came to 83%; in [3] it was 86%; in assay [4], 7%; in assay [5], 46%; in [6], 10%.

Consider `O=C(O/N=C/c1cccnc1)c1ccccc1`, for which the result in [1] was inactive. For the same compound, the Activity in assay [7] was 38%; in assay [2], 39%; in assay [3], 72%; in assay [4], 1%.

With `NC(=NOC(=O)c1ccc([N+](=O)[O-])cc1)c1ccccn1`, in assay [1], the result was inactive. Besides, the Activity is 85% in assay [2]; 73% in [3]; 15% in [8]; 20% in assay [4]; 70% in assay [5]; 10% in assay [6]. Further, the result in assay [9] and in assay [10] was Active.

Turning to `O=C(O/N=C/c1ccncc1)c1ccc([N+](=O)[O-])cc1`, in [1], the outcome was inactive. Further, the Activity in assay [2] was found to be 87%; in [3] it was 67%; in assay [4], 33%; in [5], 28%; in assay [6], 9%.

With `CC(=O)O/N=C(\N)c1cccnc1`, in assay [1], the outcome was inactive. Also, the results for the Activity in [7], in [2] and in [3] were 6%, 0% and 0%, respectively.

As for `O/N=C/c1cccnc1`, the outcome in assay [11] and in assay [1] was inactive.

In the case of `N/C(=N\OC(=O)c1ccc([N+](=O)[O-])cc1)c1ccncc1`, in assay [1], the outcome was inactive. Besides, the Activity in assay [2] was found to be 75%; in [3] it was 50%; in assay [4], 50%; in assay [5], 25%; in assay [6], 7%. Further, the outcome in assay [9] and in assay [10] was Active.

On to `NC(=NOC(=O)c1ccc([N+](=O)[O-])cc1)c1cccnc1`, for which the Activity in assay [12] was 83%; in [7] it was 75%; in assay [2], 81%; in [13], 5%; in assay [14] it was 2%; in assay [15] it was 28%. Further, the Activity is 64% in assay [3]; 4% in [8]; 36% in assay [4]; 6% in assay [16]; 56% in assay [5]; 86% in assay [17]. For the same compound, the Activity in [6] turned out to be 4%; in assay [18], 16%. In addition, the result in assay [1] was inactive. For the same compound, the result in assay [9] and in assay [10] was Active.

In the case of `N/C(=N\O)c1cccnc1`, the outcome in assay [11] and in assay [1] was inactive.

For `O=C(O/N=C/c1cccnc1)c1ccc([N+](=O)[O-])cc1`, the Activity in [12] is 75%; in assay [7], 81%; in [19] it was 8%; in assay [2], 84%; in [13], 20%; in [14], 2%. The Activity was found to be 85% in assay [15]; 84% in [3]; 13% in assay [4]; 9% in assay [16]; 59% in [5]; 85% in [17]. Besides, the Activity in assay [6] amounted to 2%; in assay [18], 23%. In addition, the result in assay [1] was inactive.

As for `COc1ccc(C(=O)O/N=C(\N)c2cccnc2)cc1`, the result in assay [1] was inactive. The Activity in [7] was determined as 27%; in assay [2] it was 0%; in assay [3] it was 36%.

As for `COc1ccc(C(=O)O/N=C/c2cccnc2)cc1`, the outcome in [1] was inactive. For the same compound, the Activity is 29% in assay [7], 0% in assay [2] and 35% in assay [3].

Regarding `N=C(NOC(=O)c1ccccc1)c1cccnc1`, the result in [1] was inactive. Also, the values for the Activity in assay [7], in [2] and in [3] were 25%, 5% and 25%, respectively.
